Data taken from PMC2441954, “Phase I pharmacokinetic and pharmacodynamic study of the prenyl transferase inhibitor AZD3409 in patients with advanced cancer” (British Journal of Cancer, 2008).
Like-named read-outs stand apart in the source and are kept apart here.

Test: Plasma pharmacokinetics (LC-MS/MS, noncompartmental) in phase I patients
Assay type: in vivo, human
Settings: for Cmax / AUC: human, plasma, oral; for AUC: read-out: AUC0−τ
Protocol: Pharmacokinetic studies were performed in all patients. Ethylenediaminetetraacetic acid blood samples were collected during the first cycle: on day 1 before the first drug intake and 0.5, 1, 2, 4, 6, 8, 12 and 24 h after administration; on days 3, 8 and 15 before the morning drug intake and 2 h after administration; and on day 22 before the morning drug intake and 0.5, 1, 2, 4, 6, 8, 12 and 24 h after administration. Samples were immediately put on ice and centrifuged at 4°C for 10 min at 1500 g. The resulting plasma was stored at −70°C until analysis. Plasma samples of the last three patients were not measured as the study was stopped before analysis.
The total plasma concentrations of AZD3409 ester and AZD3409 acid were determined by LC–MS/MS. The plasma samples were treated with dithiothreitol to reduce any disulphide bonds. The sample pretreatment was based on protein precipitation with acidic acetonitrile. Isotopically labelled analogues were used as internal standards. The method has been validated regarding selectivity, accuracy, precision and stability in human plasma. The lower limit of quantification was 3 ng ml^−1 for both AZD3409 ester and AZD3409 acid, with a 50 μl sample volume.
The following PK parameters were determined, either by direct observation or by noncompartmental analysis (WinNonlin, version 5.0.1; Pharsight, Mountain View, CA, USA): the minimal plasma concentration (Cmin), the maximal plasma concentration (Cmax), the area under the curve within one dosing interval (AUC0−τ) and total plasma clearance (Cl/F). Correlations between dose and Cmax levels and between dose and AUC0−τ were analysed on day 1 using the nonparametric Spearman's ρ (Rs) correlation test. Accumulation was tested with an exact Wilcoxon's rank paired signed test. Linear measures mixed effects models were constructed with SAS (SAS Institute Inc., Cary, NC, USA) to determine the effect of the dose on the trough plasma concentrations of both metabolites. The daily dose, time (days), gender and age were considered to be a fixed effect, and the patient variable was considered to be a random effect. Owing to the distribution of the trough plasma concentration log transformation was applied.

[1] = 500 mg once daily, day 1, dose 500 (once daily), N=3, mean (SD)
[2] = 500 mg once daily, day 22, dose 500 (once daily), N=2, absolute values
[3] = 750 mg b.i.d., day 1, dose 750 b.i.d., N=8, mean (SD)
[4] = 750 mg b.i.d., day 22, dose 750 b.i.d., N=3, mean (SD)
[5] = 1000 mg once daily, day 1, dose 1000 (once daily), N=3, mean (SD)
[6] = 1000 mg once daily, day 22, dose 1000 (once daily), N=3, mean (SD)
[7] = 1250 mg b.i.d., day 1, dose 1250 b.i.d., N=6, mean (SD)
[8] = 1250 mg b.i.d., day 22, dose 1250 b.i.d., N=4, mean (SD)
[9] = 1500 mg b.i.d., day 1, dose 1500 b.i.d., N=2, absolute values
[10] = 1750 mg b.i.d., day 1, dose 1750 b.i.d., N=4, mean (SD)
[11] = 1750 mg b.i.d., day 22, dose 1750 b.i.d., N=1

- AUCester/AUCacid ratio (day 1): 2.5
- Spearman correlation (Rs) between dose and AUC (day 1): 0.52
- Spearman correlation (Rs) between dose and Cmax (day 1): 0.43
- AUCester/AUCacid ratio (day 22): 2.0
- Cl/F (day 22, dose 500 (once daily), N=2, absolute values): [263–308] l h^−1
- Cl/F (day 22, dose 750 b.i.d., N=3, mean (SD)): 309 (151) l h^−1
- Cl/F (day 22, dose 1000 (once daily), N=3, mean (SD)): 319 (172) l h^−1
- Cl/F (day 22, dose 1250 b.i.d., N=4, mean (SD)): 474 (231) l h^−1
- Cl/F (day 22, dose 1750 b.i.d., N=1): 1145 L/h
- Ratio AUC0−τ day 22/day 1 (dose 500 (once daily), N=2, absolute values): [1.42–8.31]
- Ratio AUC0−τ day 22/day 1 (dose 750 b.i.d., N=3, mean (SD)): 7.03 (8.46)
- Ratio AUC0−τ day 22/day 1 (dose 1000 (once daily), N=3, mean (SD)): 1.54 (0.86)
- Ratio AUC0−τ day 22/day 1 (dose 1250 b.i.d., N=4, mean (SD)): 1.28 (0.70)
- Ratio AUC0−τ day 22/day 1 (dose 1750 b.i.d., N=1): 0.97
- Cmax [1]: 82.1 ng/mL
- AUC [1]: 395 ng·h/mL
- Cmax [2]: 229 to 257 ng/mL
- AUC [2]: 1230 to 1460 ng·h/mL
- Cmax [3]: 245 ng/mL
- AUC [3]: 1070 ng·h/mL
- Cmax [4]: 298 ng/mL
- AUC [4]: 1720 ng·h/mL
- Cmax [5]: 318 ng/mL
- AUC [5]: 1540 ng·h/mL
- Cmax [6]: 296 ng/mL
- AUC [6]: 1930 ng·h/mL
- Cmax [7]: 338 ng/mL
- AUC [7]: 1780 ng·h/mL
- Cmax [8]: 366 ng/mL
- AUC [8]: 2120 ng·h/mL
- Cmax [9]: 227 to 315 ng/mL
- AUC [9]: 1460 to 1630 ng·h/mL
- Cmax [10]: 362 ng/mL
- AUC [10]: 1690 ng·h/mL
- Cmax [11]: 445 ng/mL
- AUC [11]: 1100 ng·h/mL
Compound: CSCC[C@H](NC(=O)c1cc(NC[C@@H]2C[C@H](S)CN2)ccc1CCc1ccc(F)cc1)C(=O)OC(C)C [AZD3409 ester]
